Experimental data: publication PMC4478171, “Synthesis, characterization, and preclinical validation of a PET radiopharmaceutical for interrogating Aβ (β-amyloid) plaques in Alzheimer’s disease” (EJNMMI Research, 2015)

Columns and labels:
[1] = target: cortical Aβ plaques in AD frontal cortex sections (Homo sapiens, UniProt P05067); assay: Autoradiography on AD frontal cortex sections with IHC correlation; type: binding; details: 10 nM tracer, 60 min, 12 μm AD frontal cortex sections
Procedure: Frozen AD frontal cortex sections (12 μm) were obtained using a TBS Minotome PLUS Cryostat. The tissue sections were thaw-mounted onto Superfrost Plus (Fisherbrand 12-550-15 (Fisherbrand, Leicestershire, UK)) microscope slides, allowed to air dry for 10 to 15 min, and stored at −80°C. For autoradiography, brain sections were brought to room temperature for 5 min and then pre-incubated in assay buffer (30 mM Tris-HCl, pH 7.4 + 0.1% BSA) for 10 min at RT. Sections were incubated with ^18F-7B (300 μL/slide; 10 nM) in the assay buffer for 60 min at room temperature. For determining nonspecific binding, adjacent sections were incubated in the additional presence of 2.5 μM cold ligand 7A. Sections were then washed at RT for 1 min in 30 mM Tris-HCl pH 7.4, 2 min in 70% ethanol/30 mM Tris-HCl, 1 min in 30% ethanol/30 mM Tris-HCl, and 1 min in 30 mM Tris-HCl (washing protocol using literature precedents. Sections were then dried and exposed to phosphor-imaging screen (BAS-MS 2025) for 30 min. Autoradiography images were obtained on a Fuji Bio-Imaging System FLA-7000 (Tokyo, Japan) and analyzed using MultiGauge software (Fuji, Tokyo, Japan). Following exposure to a phosphor-imaging screen, the sections were then blocked for 60 min at room temperature with 3% milk-0.25% Tween 20-PBS buffer. […]

Aβ1-42 fibrils = target: T1, Aβ1-42 fibrils (Homo sapiens, UniProt P05067); assay: Saturation radioligand binding to preformed Aβ1-42 fibrils
T1 construct: synthetic Aβ1-42 peptide (1 mg) (Bachem, Torrance, CA); purchased Bachem, Torrance, CA; host or cells: chemical synthesis
T1 sequence (P05067 672-713 limits assumed): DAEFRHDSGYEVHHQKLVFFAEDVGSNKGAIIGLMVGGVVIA
Procedure: Aβ1-42 fibrils were obtained using literature procedures described earlier. Briefly, synthetic Aβ1-42 peptide (1 mg) (Bachem, Torrance, CA) was initially dissolved in DMSO (50 μL) and diluted with the addition of mQ-H2O (925 μL). Finally, 1 M Tris-HCl (25 μL; pH 7.6) was added to the peptide solution to obtain a final peptide concentration (222 μM; 1 mg/mL). Thereafter, the peptide solution was incubated for 30 h at 37°C with shaking at 1,000 rpm in an Eppendorf Thermomixer. The fibril formation was confirmed by ThioT fluorescence. For determining the concentration of fibrils, the fibril reaction mix was centrifuged at 15,000×g for 15 min to separate the fibrils from the monomer. The concentration of Aβ monomer in the supernatant was determined in a BCA protein assay. […] The exact hot:cold (^18F-7B:7A) ratio was measured in each experiment by counting an aliquot of a sample (2 μL) of the radioligand preparation in a scintillation counter. Binding of ^18F-7B to human brain homogenates was assessed by incubating samples of insoluble fraction (5-μg insoluble protein/well) from AD subjects, with increasing concentrations of ^18F-7B (1.5 to 100 nM). Nonspecific binding was determined in parallel experiments utilizing 7A (2.5 μM) for Aβ1-42 fibrils and 7A (5 μM) for AD tissue as a competitor. […] Bmax values were calculated in pmol/gram wet weight of brain tissue.

cortical Aβ plaques in AD frontal cortex sections, sequence (P05067 672-711 limits assumed): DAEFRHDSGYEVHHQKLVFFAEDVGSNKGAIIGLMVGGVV

labeling of Aβ plaques in autoradiography [1]: showed labeling of cortical Aβ plaques | Bmax (Aβ1-42 fibrils): 6 pmol/nmol Aβ | Kd (Aβ1-42 fibrils; one-site model): 61 nM
SMILES: CN(C)c1ccc(/C=C/c2nc3ccc(OCC[18F])cc3s2)cn1 [^18F-7B, (E)-5-(2-(6-(2-[^18F]-fluoroethoxy)-benzo[d]thiazol-2-yl)vinyl)-N,N-dimethylpyridin-2-amine]
